For assay [1] the following is noted: published CLSI MIC used as test concentration; species not given; cited from earlier work.
The next assay relates to E. faecalis. The settings on record: published CLSI MIC used as test concentration; cited from earlier work.
A further assay has as its system S. aureus. Particulars: published CLSI MIC used as test concentration; cited from earlier work.
The test system of a further assay is S. pneumoniae. Particulars: published CLSI MIC used as test concentration; cited from earlier work.
The test system of the next assay is C. albicans. Particulars: published CLSI MIC used as test concentration; antifungals tested for C. albicans; cited from earlier work.
For the next assay, the system named is KP. Kind of assay: MAST: hypoxanthine production after 4 h incubation with antimicrobial. The assay is classed as cell-based, Klebsiella pneumoniae. An excerpt: All chemicals were obtained from Sigma-Aldrich (St. Louis, Mo. USA), VWR (Radnor, Pa. USA), or Fisher Scientific (Waltham, Mass. USA) unless otherwise specified. Clinical isolates used in this study were obtained from bloodstream infected patients. All strains were first identified and tested for antibiotic susceptibility using a clinical laboratory testing pipeline (plating on selective medium for single colony isolation, Gram staining, MALDI-TOF-MS species identification, and sub-culturing for purity and inoculation onto VITEK 2 (bioMerieux) antimicrobial susceptibility panels), and subsequently frozen as cryostocks. With the exception of S. pneumoniae, all strains were routinely grown in Mueller Hinton medium (BD Difco, Mississauga, ON, Canada). S. pneumoniae isolates were first revived on trypticase soy agar plates containing sheep blood (BD BBL, Mississauga, ON, Canada) and then sub-cultured into Mueller Hinton medium supplemented with catalase (1000 U/mL). For biomarker discovery and validation of biomarkers using MPAs, exponential phase cultures were used to seed 96 well culture plates (Corning, N.Y., N.Y. USA) containing Mueller Hinton medium with 10% donated human blood to a 0.5 McFarland (OD600˜0.07 or ˜1.5×10^8 CFU/mL). […] Supernatant was then diluted 1:10 with 50% LC-MS grade methanol and analyzed using UHPLC-MS. […]

In assay [2] the test system is E. coli. The settings on record: published CLSI MIC used as test concentration; cited from earlier work.
For the next assay, the system named is P. aeruginosa. The settings on record: published CLSI MIC used as test concentration; cited from earlier work.
The subject of a further assay is K. pneumoniae. The settings on record: published CLSI MIC used as test concentration; cited from earlier work.
In assay [3] the test system is E. coli. Kind of assay: MAST: succinate production after 4 h incubation with antimicrobial. The settings on record: AMP and SXT resistant E. coli strain, antibiotics at MIC. In kind it is cell-based, Escherichia coli.
From the text: All chemicals were obtained from Sigma-Aldrich (St. Louis, Mo. USA), VWR (Radnor, Pa. USA), or Fisher Scientific (Waltham, Mass. USA) unless otherwise specified. Clinical isolates used in this study were obtained from bloodstream infected patients. All strains were first identified and tested for antibiotic susceptibility using a clinical laboratory testing pipeline (plating on selective medium for single colony isolation, Gram staining, MALDI-TOF-MS species identification, and sub-culturing for purity and inoculation onto VITEK 2 (bioMerieux) antimicrobial susceptibility panels), and subsequently frozen as cryostocks. With the exception of S. pneumoniae, all strains were routinely grown in Mueller Hinton medium (BD Difco, Mississauga, ON, Canada). […] Supernatant was then diluted 1:10 with 50% LC-MS grade methanol and analyzed using UHPLC-MS. […]
To assess MAST as a potential clinical tool, three patient isolates for each target pathogen (2 each for S. aureus and P. aeruginosa) were analyzed. […] Both bactericidal (penicillins, cephalosporins, carbapenems, glycopeptides, aminoglycosides and fluoroquinolones) and bacteriostatic (macrolides, tetracyclines, and trimethoprim-sulfamethoxazole) antibiotic classes were evaluated.

Here are results for 13 compounds from patent publication US12503719B2, “Metabolomic characterization of microorganisms” (priority 2019, dated 2025).

Values after ≈ are worked out from the molar mass of the structure shown.

penicillin: the minimum inhibitory concentrations in assay [1] is 0.06 µg/mL.
As for gentamicin, the minimum inhibitory concentrations in assay [1] was 4 µg/mL; in the assay on E. faecalis, 500 µg/mL.
As for `CN[C@H](CC(C)C)C(=O)N[C@H]1C(=O)N[C@@H](CC(N)=O)C(=O)N[C@H]2C(=O)N[C@H]3C(=O)N[C@H](C(=O)N[C@H](C(=O)O)c4cc(O)cc(O)c4-c4cc3ccc4O)[C@H](O)c3ccc(c(Cl)c3)Oc3cc2cc(c3O[C@@H]2O[C@H](CO)[C@@H](O)[C@H](O)[C@H]2O[C@H]2C[C@](C)(N)[C@H](O)[C@H](C)O2)Oc2ccc(cc2Cl)[C@H]1O` [VAN, vancomycin], the minimum inhibitory concentrations was 2 µg/mL (≈ 1.38 µM) in the assay on S. aureus, 4 µg/mL (≈ 2.76 µM) in the assay on E. faecalis and 1 µg/mL (≈ 0.69 µM) with S. pneumoniae.
For the compound `OC(Cn1cncn1)(Cn1cncn1)c1ccc(F)cc1F` [FLC, fluconozole], the minimum inhibitory concentrations in the assay with C. albicans was 2 µg/mL (≈ 6.53 µM).
With `CC[C@H]1OC(=O)[C@H](C)[C@@H](O[C@H]2C[C@@](C)(OC)[C@@H](O)[C@H](C)O2)[C@H](C)[C@@H](O[C@@H]2O[C@H](C)C[C@H](N(C)C)[C@H]2O)[C@](C)(O)C[C@@H](C)C(=O)[C@H](C)[C@@H](O)[C@]1(C)O` [ERY, erythromycin], the results for the minimum inhibitory concentrations in the assay on S. aureus and with S. pneumoniae were 0.5 µg/mL (≈ 0.681 µM) and 0.25 µg/mL (≈ 0.341 µM), respectively.
For the compound `CC(C)(O/N=C(\C(=O)N[C@@H]1C(=O)N2C(C(=O)[O-])=C(C[n+]3ccccc3)CS[C@H]12)c1csc(N)n1)C(=O)O` [CAZ, ceftazidime], in assay [1], the minimum inhibitory concentrations is 8 µg/mL (≈ 14.6 µM).
As for `Nc1nc(=O)[nH]cc1F` [5FC, 5-flucytosine], the minimum inhibitory concentrations with C. albicans was 0.5 µg/mL (≈ 3.87 µM).
As to `C[C@@H](O)[C@H]1C(=O)N2C(C(=O)O)=C(S[C@@H]3CN[C@H](C(=O)N(C)C)C3)[C@H](C)[C@H]12` [MEM, meropenem], the hypoxanthine production entry with KP (drug sensitive strains, range of meropenem concentrations) was “incremental reduction in hypoxanthine production proportional to meropenem concentrations”; in the assay with KP (resistant strains, clinically-relevant antibiotic concentrations) it was “remain unaffected”. Besides, the minimum inhibitory concentrations in the assay on E. coli [2] is 1 µg/mL (≈ 2.61 µM); with P. aeruginosa it was 2 µg/mL (≈ 5.22 µM); in the assay on S. pneumoniae it was 0.25 µg/mL (≈ 0.652 µM); with K. pneumoniae, 1 µg/mL (≈ 2.61 µM).
`C[C@@H]1[C@H](O)[C@@H](C)/C=C/C=C/C=C/C=C/C=C/C=C/C=C/[C@H](O[C@@H]2O[C@H](C)[C@@H](O)[C@H](N)[C@@H]2O)C[C@@H]2O[C@](O)(C[C@@H](O)C[C@@H](O)[C@H](O)CC[C@@H](O)C[C@@H](O)CC(=O)O[C@H]1C)C[C@H](O)[C@H]2C(=O)O` [AMB, amphotericin B]: the minimum inhibitory concentrations with C. albicans was 2 µg/mL (≈ 2.16 µM).
For `Cc1onc(-c2ccccc2)c1C(=O)N[C@@H]1C(=O)N2[C@@H]1SC(C)(C)[C@@H]2C(=O)O` [OXA, oxacillin], in assay [1], the minimum inhibitory concentrations is 2 µg/mL (≈ 4.98 µM).
For `CC1(C)S[C@@H]2[C@H](NC(=O)[C@H](N)c3ccccc3)C(=O)N2[C@H]1C(=O)O` [AMP, ampicillin], the minimum inhibitory concentrations in [1] was 8 µg/mL (≈ 22.9 µM). In addition, in the assay on E. coli [3], the “succinate production in presence of antibiotic versus absence of antibiotics” value is listed as “comparable”.
Turning to `Cc1nnc(SCC2=C(C(=O)O)N3C(=O)[C@@H](NC(=O)Cn4cnnn4)[C@H]3SC2)s1` [CFX, cefazolin], in assay [1], the minimum inhibitory concentrations was 4 µg/mL (≈ 8.8 µM).
Consider `CO/N=C(\C(=O)N[C@@H]1C(=O)N2C(C(=O)O)=C(CSc3nc(=O)c(=O)[nH]n3C)CS[C@H]12)c1csc(N)n1` [CRO, Ceftriaxone], for which the minimum inhibitory concentrations is 1 µg/mL (≈ 1.8 µM) with E. coli [2], 0.5 µg/mL (≈ 0.902 µM) with S. pneumoniae and 1 µg/mL (≈ 1.8 µM) with K. pneumoniae.
